This is an account of results in the NIST ThermoML archive (doi:10.1021/je020107x).

The nature of this series: refractive index (Na D-line) (dimensionless). Conditions: 298.15 K; 101.33 kPa; Liquid; Standard Abbe refractometry.

Structures are written as SMILES. ± gives the expanded uncertainty stated by the source.

For the compound `Clc1ccc(Cl)c(Cl)c1` [1,2,4-trichlorobenzene], the refractive index (as a rule, the speed of light in vacuum divided by its phase velocity in the sample) is on record as 1.522 ± 0.0005.

As to `Clc1ccccc1Cl` [1,2-dichlorobenzene], the refractive index amounted to 1.5491 ± 0.0005.

For the compound `Clc1cccc(Cl)c1` [1,3-dichlorobenzene], the refractive index was determined as 1.5432 ± 0.0005.

On to `Clc1ccccc1` [chlorobenzene], for which the refractive index was determined as 1.5218 ± 0.0005.

As to `CCCCCCCCCCCC` [dodecane], the refractive index is recorded as 1.4275 ± 0.0005.

With `CCCCCCCCCCCCCCCC` [hexadecane], the refractive index is given as 1.4325 ± 0.0005.

For `CCCCCC` [hexane], the refractive index came out at 1.3728 ± 0.0005.
